What was measured:
[1] = system: human mammary epithelial cells (HMECs); experiment: LDH assay in healthy human mammary epithelial cells; format: cell-based; conditions: 1, 2, 5, 10 and higher nM doses, 48 hrs
Procedure: FIG. 11 illustrates an embodiment of the present invention and illustrates SIM-1 and SIM-2 induced apoptosis in MDA-MB-468 TNBC cells, but not HMEC control cells. MDA-MB-468 cells were treated with increasing doses of (A) SIM-1 and (B) SIM-2 for 48 hrs followed by lactate dehydrogenase (LDH) release assay in the supernatants. The result was offset with cell-bound LDH and presented as a percent of DMSO control as discussed under method section. Half-maximal cytotoxicity or CT50 analyses were performed plotting maximum response as an index of increasing doses of (C) SIM-1 and (D) SIM-2. AnnexinV (green) and propidium iodide (red) dual-labeling were performed to evaluate apoptotic response in MDA-MB-468 cells once treated with increasing doses of (E) SIM-1 and (F) SIM-2 for 24 hrs. Nuclei were stained with DAPI. TUNEL assay was performed in MDA-MB-468 cells after treatment with 25 nM of (G) SIM-1. Brown-colored TUNEL bodies were visualized at cresyl violet-stained blue nuclei. (H) The number of TUNEL bodies were counted as a percent of 100 cresyl violet-stained blue cells. Ten independent images were counted for the quantification study. Similarly, SIM-2 was assessed for (I) TUNEL and (J) subsequent quantification analyses. […]
LDH Assay. […] Each dose was measured in triplicates. […] The plate was read at 490 nm (background at 680 nm). […]

[2] = biological target: STAT3 (Homo sapiens, UniProt P40763); experiment: Protein thermal shift assay with recombinant STAT3; format: binding; parameters: purchased Active motif 81095; conditions: for ΔTm of STAT3: cut-off 2° C.; for lowest concentration that significantly (>2° C.) shifted the melt curve of STAT3: as low as; for EC50: non-linear hyperbolic binding curve, read-out: EC50 (half-maximal binding, maximum fluorescence versus dose)
Procedure: FIG. 5 illustrates an embodiment of the present invention and illustrates evaluations of SIM-1 and SIM-2 as STAT3 inhibitors. (A) Protein thermal shift assay was performed to assess the melting of purified recombinant STAT3 (blue; 0.5 μg protein) (Tm=melting temperature=68.88° C.). The representative melting curves were derived after adding SIM-1 (red; 4 nM), SIM-2 (purple; 8 nM), and positive control stattic (grey; 20 nM) to the STAT3 protein. The differences of melting temperature (ΔTm) between pure protein and protein+ligands are −4.54° C., −4.16° C., and 0.39° C. for SIM-1, SIM-2, and stattic (ΔTm^cut-off>2° C.). (B) Phospho protein array analysis was conducted in cell lysates of MDA-MB-468 cells treated with DMSO control (top left), 25 ng/mL EGF (top right), EGF+10 nM SIM-1 (bottom left), and EGF+SIM-2 (bottom right) for 24 hrs. Each colored arrowhead represents a specific phosphoprotein, and the description was added in the bottom of array images. S=serine and Y=tyrosine. Relative levels of (C) Tyrosine 705 (Y705) phosphorylated STAT3, (D) Serine 727 (S727) phosphorylated STAT3, (E) Tyrosine 693 (Y693) phosphorylated STAT4, (F) Tyrosine 694 ([…]) phosphorylated STAT5A had been derived after normalizing the spot densities (n=5) with respective β-actin spots. Results are mean±SD of five different spot analyses. One-way ANOVA was adopted to test the significance of mean between groups at **p<0.01, and ****p<0.0001. Ns=no significance. Thermal shift assays of increasing doses of (G) SIM-1, (H) SIM-2, and (I) stattic with purified STAT1 protein (0.5 μg protein). The respective ΔTm values were given with the plot after matching with the color code. Similarly, full-length STAT5b protein melting was assessed with (J) SIM-1, (K) SIM-2, and (L) stattic. Results are confirmed after three different experiments.
FIG. 6 illustrates an embodiment of the present invention and illustrates dose-dependent curves of maximum fluorescence for SIM1 and SIM2. Protein thermal shift assay of recombinant STAT3 was performed with increasing doses of (A) SIM-1, (B) SIM-2, and (C) positive control “Stattic”. The maximum fluorescence for each dose was derived and then plotted in GraphPad Prism software with respective doses. The resultant non-liner hyperbolic curves provide half-maximal binding (EC50) for all three compounds.
This example provides a representative study of the present disclosure to test if SIM1 and SIM2 served as ligands of STAT3. Therefore, the present invention adopted a protein thermal shift assay in which […] of recombinant human STAT3 protein (active motif) was incubated with increasing doses of SIM1 and SIM2 followed by the execution of melting analysis starting from 25 to 95° C. as described elsewhere.

Chain of STAT3 (P40763 whole entry): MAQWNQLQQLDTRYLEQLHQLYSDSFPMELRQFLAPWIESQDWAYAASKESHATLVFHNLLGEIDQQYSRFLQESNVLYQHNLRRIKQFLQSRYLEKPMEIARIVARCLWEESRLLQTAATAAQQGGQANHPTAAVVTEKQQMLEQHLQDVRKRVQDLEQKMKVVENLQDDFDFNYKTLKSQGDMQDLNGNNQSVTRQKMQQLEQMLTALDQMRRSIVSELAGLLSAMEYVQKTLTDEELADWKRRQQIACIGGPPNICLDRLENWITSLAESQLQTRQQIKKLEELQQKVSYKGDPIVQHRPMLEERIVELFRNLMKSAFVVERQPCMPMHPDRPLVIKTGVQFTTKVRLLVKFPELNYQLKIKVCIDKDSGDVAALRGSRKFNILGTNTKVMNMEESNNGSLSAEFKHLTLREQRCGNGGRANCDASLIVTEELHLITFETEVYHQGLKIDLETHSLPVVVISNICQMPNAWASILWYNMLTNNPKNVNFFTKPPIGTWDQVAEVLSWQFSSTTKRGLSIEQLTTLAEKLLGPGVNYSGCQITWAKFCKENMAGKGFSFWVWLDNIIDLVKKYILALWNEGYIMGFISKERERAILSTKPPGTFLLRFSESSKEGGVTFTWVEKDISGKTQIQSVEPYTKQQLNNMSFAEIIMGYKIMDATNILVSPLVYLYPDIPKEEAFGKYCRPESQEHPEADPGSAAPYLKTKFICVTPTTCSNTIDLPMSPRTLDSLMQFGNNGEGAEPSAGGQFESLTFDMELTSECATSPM

Structure (SMILES) | cell death in HMEC cells (LDH) compared to DMSO control [1] | ΔTm of STAT3 ([2]; 4 nM ligand) [°C] | lowest concentration that significantly (>2° C.) shifted the melt curve of STAT3 [2] [nM] | EC50 [2] [nM] | ΔTm of STAT3 ([2]; 6 nM ligand) [°C] | ΔTm of STAT3 ([2]; 8 nM ligand (FIG. 5A legend)) [°C]
O=C(O)CCC(=O)NCc1csc2ccc(Cl)cc12 [SIM-1, 4-[(5-chloro-1-benzothiophen-3-yl)methylamino]-4-oxobutanoic acid] | unable to augment any significant cell death | −4.54 | 5 | 4.58 |  | 
CCOC(=O)c1c(NC(C)=O)sc2c(Cl)c(/C=N/O)ccc12 [SIM-2, ethyl 2-acetamido-7-chloro-6-(hydroxyiminomethyl)-1-benzothiophene-3-carboxylate] | unable to augment any significant cell death |  | 5 | 5.26 | −4.16 | −4.16
